# Measured values as given in patent US9416115B2, “Fused heterocyclic compounds as ion channel modulators” (Gilead Sciences, Inc., priority 2013, dated 2016).
# Like-named read-outs stand apart in the source and are kept apart here.
# How the values were obtained:
# Format in all cases: cell-based
# [1] = target: hNav1.1 (SCN1A) (Homo sapiens, UniProt P35498); assay: Use-dependent inhibition of the CNS Nav1.1 sodium channel; details: use-dependent block, 25 Hz, pulse 20, read-out: Nav1.1 UDB 25 Hz 10 uM
# Experimental: HEK-293 cells stably expressing wild-type (WT) hNav1.1 (SCN1A, NCBI# AB09354) were obtained from Millipore (Cat. # CYL3009) were used to record INa. Cells are maintained with standard tissue culture procedures and stable channel expression is maintained with 400 ug/mL G418 in the culture medium. Unless otherwise noted, all reagents are purchased from Sigma-Aldrich (St Louis, Mo., U.S.A.).
# Assays measuring Use-Dependent Block (UDB) of Nav1.2 are performed on an automated electrophysiology platform, QPatch 16X or QPatch HT (Sophion Bioscience, Copenhagen, Denmark), using the whole cell patch clamp technique to measure currents through the cell membrane. Series resistance compensation is set to 100% and series resistance and whole-cell compensation are performed automatically. Currents stored in the Sophion Bioscience Oracle database (Sophion Bioscience, Copenhagen, Denmark). Analysis is performed using QPatch Assay software and data are compiled in Excel 2010 (Microsoft, Seattle, Wash., U.S.A.).
# The internal (pipette) solution consists of (in mM) 105 CsF, 10 NaF, 20 CsCl, 2 EGTA, 10 HEPES, 10 Dextrose with a pH of 7.35 and osmolarity of 300 mOsmol/kg. The external (bath) solution contains in (mM): 145 NaCl, 4 KCl, 1.8 CaCl2, 1 MgCl2, 10 dextrose, 10 HEPES, with a pH of 7.35 and osmolarity of 310 mOsmol/kg. Experiments are carried out at 23-25° C.
# Compound stocks are routinely made by the Gilead Sample Bank in vials to 10 mM in dimethyl sulfoxide (DMSO). In some cases, when compounds are not soluble in DMSO, they are made in 100% ethanol. Stocks are sonicated as necessary. […]
# Cells are allowed to stabilize for 10 min after establishment of the whole-cell configuration before current is measured. The test compound is applied 2 times at 60 second intervals. After the second compound addition, a 200 second wait period was imposed to allow for equilibration. Leak currents are subtracted by using an online P/4 procedure and all currents are low-pass Bessel filtered at 5 kHz and digitized at […].
# Use-dependent block of Nav1.2 peak current is measured during pulse number 20 of a voltage pulse train (0 mV, 20 ms, 20 pulses, 25 Hz) from a holding potential of −120 mV. Currents are normalized to the peak current recorded in response to the first pulse in each frequency train. The voltage protocol for UDB was performed in the absence and presence of compound and percentage inhibition was calculated with respect to the compound free condition. Results are presented as mean percentage inhibition and data analysis is performed using QPatch Assay Software 4.0, and Excel 2002 (Microsoft, Seattle, Wash., U.S.A.).
# [2] = target: T1, wild-type human cardiac sodium channel, hNav1.5 (Homo sapiens, UniProt Q14524); assay: Peak INa screening assay (tonic block and use-dependent block)
# Experimental: (§1) The cardiac late sodium current (Late INa) and peak sodium current (Peak INa) assays are performed on an automated electrophysiology platform, QPatch 16X or QPatch HT (Sophion Bioscience, Copenhagen, Denmark) using the whole cell patch clamp technique to measure currents through the cell membrane. The assay uses an HEK293 (human embryonic kidney) cell line heterologously expressing the wild-type human cardiac sodium channel, hNav1.5, purchased from Millipore (Billerica, Mass.). No beta subunits were coexpressed with the Na channel alpha subunit. Cells are maintained with standard tissue culture procedures and stable channel expression is maintained with 400 μg/mL Geneticin in the culture medium. Experiments are carried out at 23-25° C.
# (§2) For both the Late INa and Peak INa assays, series resistance compensation is set to 100% and series resistance and whole-cell compensation are performed automatically. Currents are digitized at 25 kHz and low-pass filtered at 5 kHz and stored in the Sophion Bioscience Oracle database (Sophion Bioscience, Copenhagen, Denmark). Analysis is performed using QPatch Assay software and data are compiled in Excel 2010 (Microsoft, Seattle, Wash., U.S.A.).
# (§3) Compound stocks are routinely made by the Gilead Sample Bank in vials to 10 mM in dimethyl sulfoxide (DMSO). In some cases, when compounds are not soluble in DMSO, they are made in 100% ethanol. Stocks are sonicated as necessary. The extracellular solution for screening Late INa is composed of: 140 mM NaCl, 4 mM KCl, 1.8 mM CaCl2, 1 mM MgCl2, 10 mM HEPES and 10 mM Dextrose with pH adjusted to 7.35 using NaOH. The intracellular solution contains: 105 mM CsF, 20 mM CsCl, 10NaF, 2 mM EGTA, 10 mM HEPES and 10 mM Dextrose with pH adjusted to 7.35 with CsOH. Compounds are diluted in extracellular solution using a MicroLab Nimbus (Hamilton Robotics, Reno, Nev.) to between 0.3 and 3 μM in glass vials and transferred to glass well plates before robotic addition to the cells. The 0 mM Na extracellular solution (0Na-ECF) used at the end of each experiment for the Late INa and Peak INa assays to measure baseline current contains: 140 Choline-Cl; 4 mM KCl, 1.8 mM CaCl2; 1 mM MgCl2; 10 mM HEPES and 10 mM Dextrose with pH was adjusted to 7.35 with CsOH.
# Compounds were evaluated for their effect Nav1.5 Peak INa. It is contemplated that the compounds of Formula I avoid significant block of peak INa. Since the peak INa in the cells used herein can be very large, introducing artifacts in the recording, the concentration of Na^+ in the bath can be reduced to 40 mM by isosmotic replacement of Na^+ with Choline (see below).
# Tonic Block (TB) of Peak INa was measured using a voltage step to −20 mV from a holding potential of −100 mV at a low stimulation frequency of 0.1 Hz. Use-Dependent Block (UDB) of Peak INa was measured during pulse number 50 of a pulse train (−20 mV, 20 ms, 50 pulses, 3 Hz) from a holding potential of −100 mV.
# The extracellular solution for screening Peak INa is composed of: 40 mM NaCl, 100 mM Choline-Cl, 4 mM KCl, 1.8 mM CaCl2, 1 mM MgCl2 10 mM HEPES and 10 mM Dextrose with pH adjusted to 7.35 using NaOH. The intracellular solution used for the Peak INa assay is the same as outlined for the Late INa assay (see above).
# After establishing the whole cell recording configuration, channels were stimulated to open with low frequency (0.1 Hz) so that the recording can be monitored and the extent to which the recording has stabilized can be assessed.
# The test compound is then applied at 1 or 3 μM and was added 2 times at 60 second intervals. After the second compound addition, a 200 second wait period was imposed to allow for equilibration. Voltage protocols for TB and UDB are were performed in the absence and presence of compound and TB and UDB are calculated with respect to the compound free condition. Both TB and UDB were analyzed by incorporating rundown correction for the peak INa.
# [3] = target: T1, wild-type human cardiac sodium channel, hNav1.5; assay: Late INa screening assay (QPatch whole cell patch clamp, Tefluthrin-induced late current); details: HEK293 hNav1.5, percent block of late INa
# Experimental: as §1, §2, §3
# For the Late INa assay, sodium channels are activated every 10 seconds (0.1 Hz) by depolarizing the cell membrane to −20 mV for 250 milliseconds (ms) from a holding potential of −120 mV.
# Compounds were tested to determine their activity in blocking the late sodium current. Late INa was generated by adding 10 μM Tefluthrin (pyrethroid) to the extracellular solution. For the purposes of the screening, Late INa is defined as the mean current between […] during the voltage step to −20 mV. After establishing the whole cell recording configuration, Late INa activator is added to each well 4 times over a 15 minute period so that the late component of the Na current reaches a stable value. Compounds were then added (typically at 0.3 or 1 μM), in the presence of the Late Na^+ activator, with 3 additions over the course of 5 minutes. Measurements were made at the end of exposure to the third compound addition and values were normalized to the current level when all Na^+ was removed from the extracellular solution after two additions of 0Na-ECF.
# Results are reported as percent block of late INa and results were analyzed by incorporating rundown correction for the Late INa.
# [4] = tonic block of Peak INa, 0.1 Hz, holding -100 mV, read-out: Peak TB 3 uM
# [5] = use-dependent block of Peak INa, 3 Hz, pulse 50, read-out: Peak UDB 3 Hz 3 uM
# T1 sequence (Q14524 whole entry): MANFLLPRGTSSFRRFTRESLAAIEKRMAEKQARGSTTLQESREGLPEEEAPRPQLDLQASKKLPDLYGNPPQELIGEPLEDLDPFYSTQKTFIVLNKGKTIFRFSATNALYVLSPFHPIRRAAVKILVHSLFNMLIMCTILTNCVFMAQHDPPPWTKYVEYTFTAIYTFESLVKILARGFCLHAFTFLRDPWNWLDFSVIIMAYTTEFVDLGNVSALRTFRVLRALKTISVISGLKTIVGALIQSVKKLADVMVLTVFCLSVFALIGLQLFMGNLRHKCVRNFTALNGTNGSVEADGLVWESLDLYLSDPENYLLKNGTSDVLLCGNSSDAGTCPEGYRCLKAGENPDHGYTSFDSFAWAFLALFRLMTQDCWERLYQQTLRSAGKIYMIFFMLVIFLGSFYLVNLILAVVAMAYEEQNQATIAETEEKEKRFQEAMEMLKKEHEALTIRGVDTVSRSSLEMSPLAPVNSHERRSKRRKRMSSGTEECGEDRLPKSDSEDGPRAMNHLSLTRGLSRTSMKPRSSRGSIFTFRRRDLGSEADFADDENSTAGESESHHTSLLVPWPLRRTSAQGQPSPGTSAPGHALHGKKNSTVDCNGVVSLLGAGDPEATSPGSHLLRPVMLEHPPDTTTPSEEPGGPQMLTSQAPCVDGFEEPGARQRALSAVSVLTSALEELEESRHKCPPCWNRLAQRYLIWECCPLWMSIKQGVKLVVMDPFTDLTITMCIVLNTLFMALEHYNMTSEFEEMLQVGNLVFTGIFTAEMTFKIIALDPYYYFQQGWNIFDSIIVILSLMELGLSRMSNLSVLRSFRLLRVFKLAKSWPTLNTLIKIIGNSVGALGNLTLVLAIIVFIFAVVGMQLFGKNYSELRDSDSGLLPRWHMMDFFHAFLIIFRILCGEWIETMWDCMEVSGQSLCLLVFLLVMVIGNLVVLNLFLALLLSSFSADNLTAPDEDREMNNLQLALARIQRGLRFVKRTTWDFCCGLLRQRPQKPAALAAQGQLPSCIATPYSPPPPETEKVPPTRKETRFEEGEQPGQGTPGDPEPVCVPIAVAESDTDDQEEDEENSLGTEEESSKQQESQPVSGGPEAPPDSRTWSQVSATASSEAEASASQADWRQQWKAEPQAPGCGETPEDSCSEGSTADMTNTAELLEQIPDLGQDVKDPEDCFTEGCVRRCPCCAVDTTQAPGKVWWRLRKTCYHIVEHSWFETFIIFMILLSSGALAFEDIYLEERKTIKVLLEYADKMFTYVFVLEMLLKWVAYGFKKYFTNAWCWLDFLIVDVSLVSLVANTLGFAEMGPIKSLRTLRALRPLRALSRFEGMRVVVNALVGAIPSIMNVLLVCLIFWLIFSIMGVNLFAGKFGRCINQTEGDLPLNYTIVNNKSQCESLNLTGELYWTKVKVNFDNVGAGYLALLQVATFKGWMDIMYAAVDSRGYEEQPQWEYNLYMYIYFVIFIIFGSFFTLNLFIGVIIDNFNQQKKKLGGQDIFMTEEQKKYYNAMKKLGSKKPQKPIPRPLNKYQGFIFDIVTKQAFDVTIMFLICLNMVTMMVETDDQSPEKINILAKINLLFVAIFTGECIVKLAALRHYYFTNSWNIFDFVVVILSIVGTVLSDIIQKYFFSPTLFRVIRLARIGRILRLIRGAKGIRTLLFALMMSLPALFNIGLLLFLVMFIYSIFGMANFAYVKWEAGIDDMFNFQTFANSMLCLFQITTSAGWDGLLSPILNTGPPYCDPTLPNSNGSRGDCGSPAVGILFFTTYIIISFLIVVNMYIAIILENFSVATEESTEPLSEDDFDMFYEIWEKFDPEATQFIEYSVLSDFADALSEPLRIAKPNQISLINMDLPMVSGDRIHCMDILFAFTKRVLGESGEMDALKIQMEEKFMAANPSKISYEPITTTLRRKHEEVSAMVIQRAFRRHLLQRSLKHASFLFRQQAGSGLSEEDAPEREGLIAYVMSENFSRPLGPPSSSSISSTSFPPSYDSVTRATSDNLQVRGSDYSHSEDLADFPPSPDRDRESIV
Compound,inhibition at 10 µM [1],"inhibition at 3 µM [2, 4]","inhibition at 3 µM [2, 5]",inhibition at 0.3 µM [3],inhibition at 1 µM [3]
"FC(F)(F)Oc1ccc(-c2ccc3onc(OC[C@@H]4CCCN4)c3c2)cc1 [Example 108, (S)-3-(pyrrolidin-2-ylmethoxy)-5-(4-(trifluoromethoxy)phenyl)benzo[d]isoxazole]",89.2%,62.6%,69.3%,30.1%,83.5%
"Cc1cc(-c2ccc(OC(F)(F)F)cc2)cc2c(OCCN3CCCC3=O)noc12 [Example 88, 1-(2-((7-methyl-5-(4-(trifluoromethoxy)phenyl)benzo[d]isoxazol-3-yl)oxy)ethyl)pyrrolidin-2-one]",66.7%,20.8%,19.5%,,47.7%
"Cc1nccn1CCOc1noc2ccc(-c3ccc(OC(F)(F)F)cc3)cc12 [Example 57, 3-(2-(2-methyl-1H-imidazol-1-yl)ethoxy)-5-(4-(trifluoromethoxy)phenyl)benzo[d]isoxazole]",82.5%,22.1%,37.1%,17%,57.3%
"FC(F)(F)Oc1ccc(-c2ccc3onc(Oc4ccccn4)c3c2)cc1 [Example 125, 3-(pyridin-2-yloxy)-5-(4-(trifluoromethoxy)phenyl)benzo[d]isoxazole]",< 5%,,,,41.8%
"Cc1cccc(CNc2noc3ccc(-c4ccc(OC(F)(F)F)cc4)cc23)n1 [Example 129, N-((6-methylpyridin-2-yl)methyl)-5-(4-(trifluoromethoxy)phenyl)benzo[d]isoxazol-3-amine]",33.5%,,,34.3%,67.5%
"FC(F)(F)Oc1ccc(-c2ccc3onc(OCCn4ccnc4)c3c2)cc1 [Example 55, 3-(2-(1H-imidazol-1-yl)ethoxy)-5-(4-(trifluoromethoxy)phenyl)benzo[d]isoxazole]",79.8%,15.1%,5.13%,45.4%,59.9%
"CN1CC(COc2noc3ccc(-c4ccc(OC(F)(F)F)cc4)cc23)CC1=O (stereo not drawn) [Example 56, 1-methyl-4-(((5-(4-(trifluoromethoxy)phenyl)benzo[d]isoxazol-3-yl)oxy)methyl)pyrrolidin-2-one]",83.6%,30.4%,31.4%,16.1%,57.8%
"O=C1CC(COc2noc3ccc(-c4ccc(OC(F)(F)F)cc4)cc23)CN1 (stereo not drawn) [Example 46, 4-(((5-(4-(trifluoromethoxy)phenyl)benzo[d]isoxazol-3-yl)oxy)methyl)pyrrolidin-2-one]",78.4%,23.7%,13.9%,,36.8%
